The values below come from patent US20260078120A1, “SUBSTITUTED PYRIDOPYRIMIDINONES” (MIRATI THERAPEUTICS, INC., priority 2022, published 2026).

The subject of experiment [1] is T47D (PI3Kα H1047R mutant) cells. Put plainly: CellTiter-Glo 2.0 luminescent cell viability assay, 72 hours, T47D cells. Type of experiment: cell-based. The conditions noted are these: Homo sapiens, T47D, 72 h, T47D (PI3Kα H1047R mutant) cells, CellTiter-Glo, approximately 72 hours; read-out: T47D (H1047R mutant) Viability IC50. Summed up:
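Cells seeded at 1000 per well overnight were dosed with a 10-concentration, 1:4 series starting at 10 µM and incubated ~72 h at 37° C. Viability was read by CellTiter-Glo 2.0 luminescence after 30 min at room temperature. IC50 came from four-parameter fits of percent vehicle control.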
In general terms: In ATP-based viability assays light output follows the ATP content of the culture.

Experiment [2] deals with SKBR3 (PI3Kα wild type) cells. Nature of the experiment: CellTiter-Glo 2.0 luminescent cell viability assay, 72 hours, SKBR3 cells. Type of experiment: cell-based. The note with it: Homo sapiens, SK-BR-3, 72 h, SKBR3 (PI3Kα wild type) cells, CellTiter-Glo, approximately 72 hours; read-out: SKBR3 (WT) Viability IC50. Summed up:
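Viability measured via CTG luminescence following roughly 72 hours of compound exposure at 37° C. Dosing used a 10 um starting concentration diluted 1:4 over 10 points; percent-of-vehicle data fitted with a variable-slope four-parameter model for IC50.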

Molecules are shown by their SMILES.

In the case of `Cc1cc([C@@H](C)Nc2ccccc2C(=O)O)c2nc(N3CC4(CCN(c5ccc(C#N)cc5)CC4)C3)c(C#N)c(=O)n2c1` [Example 11-172, (R)-2-((1-(3-cyano-2-(7-(4-cyanophenyl)-2,7-diazaspiro[3.5]nonan-2-yl)-7-methyl-4-oxo-4H-pyrido[1,2-a]pyrimidin-9-yl)ethyl)amino)benzoic acid], the half-maximal inhibitory concentration (IC50) (usually the point on the concentration scale where inhibition reaches its midpoint) was 210 nM in experiment [1] and more than 10000 nM in experiment [2].

Regarding `Cc1cc([C@@H](C)Nc2ccccc2C(=O)O)c2nc(NC[C@@H]3CC3(F)F)c(C#N)c(=O)n2c1` [Example 11-157, 2-(((R)-1-(3-cyano-2-((((S)-2,2-difluorocyclopropyl)methyl)amino)-7-methyl-4-oxo-4H-pyrido[1,2-a]pyrimidin-9-yl)ethyl)amino)benzoic acid], the IC50 in experiment [1] was 221 nM; in experiment [2], more than 10000 nM.

On to `Cc1cc([C@@H](C)Nc2ccccc2C(=O)O)c2nc(N3CCN(c4cccc(C#N)c4)CC3)c(C#N)c(=O)n2c1` [Example 11-225, (R)-2-((1-(3-cyano-2-(4-(3-cyanophenyl)piperazin-1-yl)-7-methyl-4-oxo-4H-pyrido[1,2-a]pyrimidin-9-yl)ethyl)amino)benzoic acid], for which the half-inhibitory concentration (IC50) in experiment [1] was 144 nM; in experiment [2] it was more than 10000 nM.

In the case of `Cc1cc([C@@H](C)Nc2ccccc2C(=O)O)c2nc(N3CC(C(F)F)C3)c(C#N)c(=O)n2c1` [Example 11-104, (R)-2-((1-(3-cyano-2-(3-(difluoromethyl)azetidin-1-yl)-7-methyl-4-oxo-4H-pyrido[1,2-a]pyrimidin-9-yl)ethyl)amino)benzoic acid], the half-maximal inhibitory concentration (IC50) is 306 nM in experiment [1] and more than 10000 nM in experiment [2].

For the compound `Cc1cc(C(C)Nc2ccccc2C(=O)O)c2nc(N(C)C)cc(=O)n2c1` (centres unmarked) [Example 11-408, 2-((1-(2-(dimethylamino)-7-methyl-4-oxo-4H-pyrido[1,2-a]pyrimidin-9-yl)ethyl)amino)benzoic acid], the IC50 in experiment [1] and in experiment [2] was more than 10000 nM throughout.

On to `Cc1cc(C#N)c2nc(N3CCCCC3)cc(=O)n2c1` [Example 11-409, 7-methyl-4-oxo-2-(piperidin-1-yl)-4H-pyrido[1,2-a]pyrimidine-9-carbonitrile], for which the IC50 in experiment [1] and in experiment [2] was more than 10000 nM throughout.

Regarding `Cc1cc([C@@H](C)Nc2ccc(F)cc2C(=O)O)c2nc(N3CCCCC3)c(C#N)c(=O)n2c1` [Example 11-293, (R)-2-((1-(3-cyano-7-methyl-4-oxo-2-(piperidin-1-yl)-4H-pyrido[1,2-a]pyrimidin-9-yl)ethyl)amino)-5-fluorobenzoic acid], the IC50 was 168 nM in experiment [1] and more than 10000 nM in experiment [2].

Consider `COc1ccc(C2CCN(c3nc4c([C@@H](C)Nc5ccccc5C(=O)O)cc(C)cn4c(=O)c3C)CC2)cc1` [Example 11-39, (R)-2-((1-(2-(4-(4-methoxyphenyl)piperidin-1-yl)-3,7-dimethyl-4-oxo-4H-pyrido[1,2-a]pyrimidin-9-yl)ethyl)amino)benzoic acid], for which the IC50 in experiment [1] was 114 nM; in experiment [2], more than 10000 nM.

`Cc1cc([C@@H](C)Nc2ccc(Cl)nc2C(=O)O)c2nc(N3CCCCC3)c(C#N)c(=O)n2c1` [Example 11-331, (R)-6-chloro-3-((1-(3-cyano-7-methyl-4-oxo-2-(piperidin-1-yl)-4H-pyrido[1,2-a]pyrimidin-9-yl)ethyl)amino)picolinic acid]: the 50% inhibitory concentration (IC50) is 301 nM in experiment [1] and more than 10000 nM in experiment [2].

`Cc1cc([C@@H](C)Nc2ccccc2C(=O)O)c2nc(N3CCC4(CCC(F)(F)C4)C3)c(C)c(=O)n2c1` (stereo partly drawn) [Example 11-447, 2-(((1R)-1-(2-(7,7-difluoro-2-azaspiro[4.4]nonan-2-yl)-3,7-dimethyl-4-oxo-4H-pyrido[1,2-a]pyrimidin-9-yl)ethyl)amino)benzoic acid]: the half-inhibitory concentration (IC50) is 645 nM in experiment [1] and more than 10000 nM in experiment [2].

Turning to `Cc1cc([C@@H](C)NC(=O)C2(C(=O)O)CCC2)c2nc(N3CCCCC3)c(C#N)c(=O)n2c1` [Example 11-317, (R)-1-((1-(3-cyano-7-methyl-4-oxo-2-(piperidin-1-yl)-4H-pyrido[1,2-a]pyrimidin-9-yl)ethyl)carbamoyl)cyclobutane-1-carboxylic acid], the IC50 in experiment [1] and in experiment [2] was more than 10000 nM in each case.

As for `Cc1cc([C@@H](C)Nc2ccccc2C(=O)O)c2nc(N3Cc4nccnc4C3)c(C#N)c(=O)n2c1` [Example 11-137, (R)-2-((1-(3-cyano-2-(5,7-dihydro-6H-pyrrolo[3,4-b]pyrazin-6-yl)-7-methyl-4-oxo-4H-pyrido[1,2-a]pyrimidin-9-yl)ethyl)amino)benzoic acid], the IC50 was 688 nM in experiment [1] and more than 10000 nM in experiment [2].

For the compound `Cc1cc([C@@H](C)Nc2ccccc2C(=O)O)c2nc(N3Cc4ccccc4C3CO)c(C)c(=O)n2c1` (stereo partly drawn) [Example 11-19, 2-(((1R)-1-(2-(1-(hydroxymethyl)isoindolin-2-yl)-3,7-dimethyl-4-oxo-4H-pyrido[1,2-a]pyrimidin-9-yl)ethyl)amino)benzoic acid], the IC50 in experiment [1] was 173 nM; in experiment [2] it was more than 10000 nM.

`Cc1cc([C@@H](C)Nc2ccccc2C(=O)O)c2nc(N3CCN(Cc4cccnc4)CC3C)c(C)c(=O)n2c1` (stereo partly drawn) [Example 10-132, 2-(((1R)-1-(3,7-dimethyl-2-(2-methyl-4-(pyridin-3-ylmethyl)piperazin-1-yl)-4-oxo-4H-pyrido[1,2-a]pyrimidin-9-yl)ethyl)amino)benzoic acid]: the 50% inhibitory concentration (IC50) is 51 nM in experiment [1] and more than 10000 nM in experiment [2].

With `CO[C@H]1CN(c2nc3c([C@@H](C)Nc4ccccc4C(=O)O)cc(C)cn3c(=O)c2C)CCC1(F)F` [Example 11-57, 2-(((R)-1-(2-((S)-4,4-difluoro-3-methoxypiperidin-1-yl)-3,7-dimethyl-4-oxo-4H-pyrido[1,2-a]pyrimidin-9-yl)ethyl)amino)benzoic acid], the IC50 in experiment [1] is 132 nM; in experiment [2], more than 10000 nM.

As to `Cc1cc([C@@H](C)Nc2ccccc2C(=O)O)c2nc(N3CCC(n4cccn4)CC3)c(C)c(=O)n2c1` [Example 11-432, (R)-2-((1-(2-(4-(1H-pyrazol-1-yl)piperidin-1-yl)-3,7-dimethyl-4-oxo-4H-pyrido[1,2-a]pyrimidin-9-yl)ethyl)amino)benzoic acid], the concentration for half-maximal inhibition (IC50) was 122 nM in experiment [1] and more than 10000 nM in experiment [2].

`Cc1cc([C@@H](C)Nc2ccccc2C(=O)O)c2nc(N3CC4CC(C4)C3)c(C#N)c(=O)n2c1` [Example 11-227, (R)-2-((1-(2-(3-azabicyclo[3.1.1]heptan-3-yl)-3-cyano-7-methyl-4-oxo-4H-pyrido[1,2-a]pyrimidin-9-yl)ethyl)amino)benzoic acid]: the results for the IC50 in experiment [1] and in experiment [2] were 123 nM and more than 10000 nM, respectively.

On to `Cc1ccc(C#N)c(N2CCN(c3nc4c([C@@H](C)Nc5ccccc5C(=O)O)cc(C)cn4c(=O)c3C)[C@@H](C)C2)c1` [Example 11-75, 2-(((R)-1-(2-((S)-4-(2-cyano-5-methylphenyl)-2-methylpiperazin-1-yl)-3,7-dimethyl-4-oxo-4H-pyrido[1,2-a]pyrimidin-9-yl)ethyl)amino)benzoic acid], for which the IC50 in experiment [1] was 1570 nM; in experiment [2], more than 10000 nM.

As to `Cc1cc(C(C)Nc2ccccc2C(=O)O)c2nc(Oc3cccc(C#N)c3)cc(=O)n2c1` (centres unmarked) [Example 11-340, 2-((1-(2-(3-cyanophenoxy)-7-methyl-4-oxo-4H-pyrido[1,2-a]pyrimidin-9-yl)ethyl)amino)benzoic acid], the IC50 in experiment [1] and in experiment [2] was more than 10000 nM each time.

On to `Cc1cc(C(C)Nc2ccccc2C(=O)O)c2nc(-c3ccccc3C)cc(=O)n2c1` (centres unmarked) [Example 11-395, 2-((1-(7-methyl-4-oxo-2-(o-tolyl)-4H-pyrido[1,2-a]pyrimidin-9-yl)ethyl)amino)benzoic acid], for which the concentration for half-maximal inhibition (IC50) in experiment [1] and in experiment [2] was more than 10000 nM each time.

As to `Cc1cc(C(C)NCCC(=O)O)c2nc(N3CCCCC3)cc(=O)n2c1` (centres unmarked) [Example 11-386], the IC50 in experiment [1] and in experiment [2] was more than 10000 nM each time.

Regarding `Cc1cc([C@@H](C)Nc2ccccc2C(=O)O)c2nc(N3CC(F)(F)C(F)(F)C3)c(C#N)c(=O)n2c1` [Example 11-136, (R)-2-((1-(3-cyano-7-methyl-4-oxo-2-(3,3,4,4-tetrafluoropyrrolidin-1-yl)-4H-pyrido[1,2-a]pyrimidin-9-yl)ethyl)amino)benzoic acid], the results for the IC50 in experiment [1] and in experiment [2] were 162 nM and more than 10000 nM, respectively.

On to `COc1ccc(-c2cc(=O)n3cc(C)cc(C(C)Nc4ccccc4C(=O)O)c3n2)cc1` (centres unmarked) [Example 11-392, 2-((1-(2-(4-methoxyphenyl)-7-methyl-4-oxo-4H-pyrido[1,2-a]pyrimidin-9-yl)ethyl)amino)benzoic acid], for which the concentration for half-maximal inhibition (IC50) in experiment [1] was 4040 nM; in experiment [2] it was more than 10000 nM.

For `Cc1cc([C@@H](C)Nc2ccccc2C(=O)O)c2nc(N3CCC(N4CCC(F)(F)CC4)CC3)c(C)c(=O)n2c1` [Example 11-23, (R)-2-((1-(2-(4,4-difluoro-[1,4′-bipiperidin]-1′-yl)-3,7-dimethyl-4-oxo-4H-pyrido[1,2-a]pyrimidin-9-yl)ethyl)amino)benzoic acid], the half-maximal inhibitory concentration (IC50) in experiment [1] was 139 nM; in experiment [2], more than 10000 nM.

On to `Cc1cc([C@@H](C)Nc2ccccc2C(=O)O)c2nc(N3CC[C@@H]3CF)c(C)c(=O)n2c1` [Example 11-95, 2-(((R)-1-(2-((R)-2-(fluoromethyl)azetidin-1-yl)-3,7-dimethyl-4-oxo-4H-pyrido[1,2-a]pyrimidin-9-yl)ethyl)amino)benzoic acid], for which the half-maximal inhibitory concentration (IC50) in experiment [1] was 198 nM; in experiment [2], more than 10000 nM.
